# Test results taken from patent US20040224878A1, “Fertilization of aged oocytes” (priority 2000, published 2004).
# What was measured:
# [1] = system: mouse cumulus-oocyte complex (COC); conditions: addition to the culture medium of mouse COC; cited from earlier work
# oocytes = conditions: mouse; cited from earlier work
# aged oocytes = experiment: Cell cycle progression (GV, GVBD, PB) of young and aged oocytes after 22 h culture; type: cell-based, CBA/Ca mouse; conditions: 10 μM FF-MAS in Hx-medium, aged (35-38 week old) vs young (5-6 weeks old) oocytes, FIG. 1
# Procedure: The CBA/Ca mouse provides a model system for studies on the maternal age effect of oocytes (7). This model is characterised by its relatively limited pool of follicles with low number of aged oocytes in the sexually mature adult female, similar to the human. All the following studies were carried out in the CBA/Ca mice. Animals were kept under controlled lighting and temperature.
# Oocytes from young (5-6 weeks old) and aged (35-38 week old) CBA/Ca mice in the diestrus stage of the cycle were investigated. Oocytes were isolated in Hx-medium (see below) under a stereo microscope by manual rupture of the follicles using a pair of 27 gauge needles. […]
# (a) By the end of the culture period cell cycle progression was analysed by counting the number of oocytes with germinal vesicle (GV) or germinal vesicle breakdown (GVB) and those with polar body (PB) by using a stereo microscope or an inverted microscope with differential interference contrast equipment. The percentage of oocytes with GV, GVBD and PB per total number of oocytes, respectively, was calculated in the 4 treatment groups of young and aged oocytes, respectively.
# [2] = system: aged metaphase 11 oocytes; experiment: Cytogenetic analysis (chromosome count, hyperploidy) of cultured oocytes; type: cell-based, CBA/Ca mouse; conditions: 10 μM FF-MAS given alone or in combination with Hx, 22 hours culture, FIG. 2
# Procedure: The CBA/Ca mouse provides a model system for studies on the maternal age effect of oocytes (7). This model is characterised by its relatively limited pool of follicles with low number of aged oocytes in the sexually mature adult female, similar to the human. All the following studies were carried out in the CBA/Ca mice. Animals were kept under controlled lighting and temperature. Oocytes from young (5-6 weeks old) and aged (35-38 week old) CBA/Ca mice in the diestrus stage of the cycle were investigated. Oocytes were isolated in Hx-medium (see below) under a stereo microscope by manual rupture of the follicles using a pair of 27 gauge needles. Spherical, naked oocytes (NO) displaying an intact germinal vesicle (GV) were placed in a-minimum essential medium (x-MEM without ribonucleosides, Gibco BRL, Cat. No. 22561) supplemented with 3 mM hypoxanthine (Sigma Cat. No. H-9377), 8 mg/ml Human Serum Albumin (HSA, State Serum Institute, Denmark), 0.23 mM pyruvate (Sigma, Cat. No. S-8636), 2 mM glutamine (Flow Cat. No. 16-801), 100 IU/ml penicillin and 100 μg/ml streptomycin (Flow, Cat No. 16-700). This medium was designated Hx-medium. […] The number of chromosomes was counted in each oocyte. […]
# human oocytes = conditions: concentrations around those observed in vivo, culture medium of human oocytes during IVF; cited from earlier work
molecule,measurement,setting,value
Cl.Cl.Clc1ccccc1CNCC1CCC(CNCc2ccccc2Cl)CC1 (centres unmarked) [AY9944],accumulation of FF-MAS,[1],has the capacity to induce accumulation of FF-MAS
"CC(C)=CCC[C@@H](C)[C@H]1CC=C2C3=C(CC[C@@]21C)[C@@]1(C)CC[C@H](O)C(C)(C)[C@@H]1CC3 [FF-MAS, 4,4-dimethyl-5α-cholesta-8,14,24-triene-31-ol]",nuclear (meiotic) and cytoplasmic maturation,oocytes,induces nuclear (meiotic) and cytoplasmic maturation
same,maturation to metaphase 11 (cell cycle progression),aged oocytes,more successful to mature to metaphase 11 than young oocytes
same,"numerical aberration rate, e.g. hyperploidy",[2],reduces numerical aberration rate
"EGF: growth factor enhancing endogenous production of MAS in the cumulus enclosed oocyte (NSDSECPLSHDGYCLHDGVCMYIEALDKYACNCVVGYIGERCQYRDLKWWELR; UniProt P01133 971-1023, looked up)",implantation rates of the retrieved oocytes,human oocytes,significant improved implantation rates
